The record followed here is ChEMBL document CHEMBL4043108, “Identification of galiellalactone-based novel STAT3-selective inhibitors with cytotoxic activities against triple-negative breast cancer cell lines” (Bioorg Med Chem, 2017).

What is called IC50 is the point on the concentration scale where inhibition reaches its midpoint. The low end stands for greater potency, the high end for weaker potency.

Data set [1] relates to MDA-MB-468. As to the kind of experiment: Cytotoxic activity against human MDA-MB-468 cells incubated for 24 hrs by MTT assay. It is filed as functional, cell-based. Conditions: MDA-MB-468, 24 h. For orientation: Tetrazolium assays rely on reduction of a dye to a coloured formazan, in cell work by metabolically active cells.
In a further data set the test system is MDA-MB-231. As to the kind of experiment: Cytotoxic activity against human MDA-MB-231 cells incubated for 24 hrs by MTT assay. It is filed as functional, cell-based. Conditions: MDA-MB-231, 24 h.
For the next data set, the system named is BT-549. Nature of the data set: Cytotoxic activity against human BT549 cells incubated for 24 hrs by MTT assay. It is filed as functional, cell-based. Conditions: BT-549, 24 h.
Data set [2] concerns the target Signal transducer and activator of transcription 3 (Homo sapiens) (UniProt P40763). As to the kind of experiment: Inhibition of STAT3 transcriptional activity in human MDA-MB-468 cells at 5 uM incubated for 24 hrs by STAT3-dependent luciferase reporter assay. It is filed as cell-based.
The target is the same in data set [3]. Nature of the data set: Inhibition of STAT3 Tyr705 phosphorylation in human MDA-MB-468 cells at 5 and 10 uM incubated for 4 hrs by Western blot. It is filed as cell-based. For orientation: In western blotting, separated proteins are transferred to a membrane and probed.
For data set [4] the target is unchanged. Nature of the data set: Inhibition of STAT3 Ser727 phosphorylation in human MDA-MB-468 cells at 5 and 10 uM incubated for 4 hrs by Western blot. It is filed as cell-based.
The target of data set [5] is T1, Signal transducer and activator of transcription 1-alpha/beta (Homo sapiens) (UniProt P42224).
T1 sequence (whole entry): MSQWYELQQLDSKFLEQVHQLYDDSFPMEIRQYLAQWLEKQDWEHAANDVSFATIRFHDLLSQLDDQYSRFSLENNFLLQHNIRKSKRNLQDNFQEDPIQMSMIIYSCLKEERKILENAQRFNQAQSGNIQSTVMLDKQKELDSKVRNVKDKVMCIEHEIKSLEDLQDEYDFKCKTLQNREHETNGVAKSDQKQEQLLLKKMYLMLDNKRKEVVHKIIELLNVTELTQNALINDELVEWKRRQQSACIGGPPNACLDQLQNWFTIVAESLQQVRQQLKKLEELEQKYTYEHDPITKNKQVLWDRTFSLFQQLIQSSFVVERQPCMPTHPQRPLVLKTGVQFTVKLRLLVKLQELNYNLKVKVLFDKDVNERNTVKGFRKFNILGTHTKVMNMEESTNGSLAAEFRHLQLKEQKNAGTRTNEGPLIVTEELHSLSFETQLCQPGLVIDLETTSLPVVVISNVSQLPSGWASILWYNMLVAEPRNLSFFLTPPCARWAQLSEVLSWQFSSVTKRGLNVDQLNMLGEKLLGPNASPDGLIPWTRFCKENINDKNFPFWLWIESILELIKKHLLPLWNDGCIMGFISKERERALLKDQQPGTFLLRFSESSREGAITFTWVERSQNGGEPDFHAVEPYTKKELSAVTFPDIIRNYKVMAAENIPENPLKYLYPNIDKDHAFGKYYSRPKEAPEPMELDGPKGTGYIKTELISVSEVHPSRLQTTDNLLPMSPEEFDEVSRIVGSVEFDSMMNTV
Nature of the data set: Inhibition of STAT1 Tyr701 phosphorylation in human MDA-MB-468 cells at 5 and 10 uM incubated for 4 hrs by Western blot. It is filed as cell-based.

In data set [6] the test system is MDA-MB-468. Nature of the data set: Effect on total STAT3 protein level in human MDA-MB-468 cells at 5 and 10 uM incubated for 4 hrs by Western blot. It is filed as cell-based. Conditions: mda-mb-468, 4 h.
Data set [7] concerns MDA-MB-468. Nature of the data set: Effect on total STAT1 protein level in human MDA-MB-468 cells at 5 and 10 uM incubated for 4 hrs by Western blot. It is filed as cell-based. Conditions: mda-mb-468, 4 h.
Data set [8] in a line: Toxicity in human MDA-MB-468 cells assessed as cell viability at 5 uM incubated for 24 hrs by MTT assay (reference value: 100%). To be noted: read-out: Activity. It is filed as cell-based.
Data set [9] is described as follows: Toxicity in human MDA-MB-468 cells assessed as cell viability at 10 uM incubated for 24 hrs by MTT assay (reference value: 100%). It is filed as cell-based. Conditions: read-out: Activity.

Active and inactive are the calls of the source. No cut-off for these calls is given here. Some results are limits rather than exact numbers.

Signal transducer and activator of transcription 3 (Homo sapiens), sequence (P40763 whole entry): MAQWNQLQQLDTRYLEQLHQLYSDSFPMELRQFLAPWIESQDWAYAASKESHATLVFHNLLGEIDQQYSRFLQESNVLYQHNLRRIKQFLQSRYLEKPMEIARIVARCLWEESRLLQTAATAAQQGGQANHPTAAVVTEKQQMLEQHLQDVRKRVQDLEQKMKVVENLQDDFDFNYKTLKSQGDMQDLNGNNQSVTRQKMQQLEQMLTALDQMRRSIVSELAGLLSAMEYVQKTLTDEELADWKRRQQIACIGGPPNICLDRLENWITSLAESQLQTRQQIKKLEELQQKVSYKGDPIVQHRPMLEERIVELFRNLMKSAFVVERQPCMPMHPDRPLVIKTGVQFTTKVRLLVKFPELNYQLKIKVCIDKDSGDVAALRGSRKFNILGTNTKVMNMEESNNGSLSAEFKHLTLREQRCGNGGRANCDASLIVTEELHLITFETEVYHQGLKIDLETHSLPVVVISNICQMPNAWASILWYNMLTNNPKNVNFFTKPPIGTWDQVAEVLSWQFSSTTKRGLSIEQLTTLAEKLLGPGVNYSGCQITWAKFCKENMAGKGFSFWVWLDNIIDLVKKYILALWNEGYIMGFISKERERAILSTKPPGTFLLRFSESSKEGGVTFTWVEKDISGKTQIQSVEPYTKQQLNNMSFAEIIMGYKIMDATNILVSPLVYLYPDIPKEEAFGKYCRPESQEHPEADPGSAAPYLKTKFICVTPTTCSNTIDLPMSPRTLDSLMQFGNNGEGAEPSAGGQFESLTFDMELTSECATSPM

Turning to `C=C[C@@H](C)[C@H](O)[C@H]1CC[C@H]2CC(=O)C(=C)[C@]21O`, the half-maximal inhibitory concentration (IC50) in the data set with MDA-MB-468 [1], in the data set with MDA-MB-231 and in the data set with BT-549 was > 50 µM each time. Further, the inhibition result in data set [2] was “inactive”.
With `O=C1O[C@@H]2CC[C@@H]3[C@@H](O)CC=C1[C@@]32O`, the half-inhibitory concentration (IC50) with MDA-MB-468 [1], in the data set with MDA-MB-231 and with BT-549 was > 50 µM throughout. In addition, the inhibition result in data set [2] was “inactive”.
Turning to `C[C@@H]1C(=O)O[C@@H]2CC[C@H](CBr)[C@]12O`, the IC50 in the data set with MDA-MB-468 [1], with MDA-MB-231 and in the data set on BT-549 was > 50 µM in each case. Further, in [2], the inhibition entry is “inactive”.
`C[C@@H]1C=C2C(=O)O[C@@H]3CC[C@H]([C@H]1O)[C@]23O`: the IC50 in the data set on MDA-MB-468 [1], with MDA-MB-231 and with BT-549 was > 50 µM each time. In addition, in [2], the inhibition entry is “inactive”.
As for `C=CCC(=O)[C@H]1CC[C@H]2OC(=O)C(=C)[C@@]12O`, the IC50 came to 42.4 µM with MDA-MB-468 [1], 48.3 µM in the data set on MDA-MB-231 and 25.3 µM in the data set with BT-549. The inhibition result in data set [2] is “inactive”.
`O=C1O[C@@H]2CC[C@@H]3[C@H](O)CC=C1[C@@]32O`: the 50% inhibitory concentration (IC50) in the data set with MDA-MB-468 [1], in the data set with MDA-MB-231 and with BT-549 was > 50 µM throughout. In addition, the inhibition result in data set [2] was “inactive”.
As to `C=C1C(=O)C[C@@H]2CC[C@H](CO)[C@]12O`, the IC50 is > 50 µM with MDA-MB-468 [1], > 50 µM in the data set on MDA-MB-231 and 41.1 µM in the data set on BT-549. Besides, the inhibition result in [2] was “inactive”.
Consider `C=C1C(=O)O[C@@H]2CC[C@H](CO)[C@]12OC`, for which the IC50 in the data set with MDA-MB-468 [1], in the data set with MDA-MB-231 and in the data set on BT-549 was > 50 µM in each case. In [2], the inhibition result was “inactive”.
With `C=C1C(=O)O[C@@H]2CC[C@H](CBr)[C@]12OCC`, the IC50 was found to be 7.81 µM in the data set with MDA-MB-468 [1], 9.11 µM with MDA-MB-231 and 5.7 µM in the data set with BT-549. In addition, in data set [2], the inhibition entry is “Active”.
Consider `C[C@H]1C=C2C(=O)O[C@@H]3CC[C@H](C1=O)[C@]23O`, for which the IC50 in the data set on MDA-MB-468 [1], with MDA-MB-231 and with BT-549 was > 50 µM throughout. Besides, the inhibition result in data set [2] was “inactive”.
Regarding `C=CC[C@H](O)[C@H]1CC[C@H]2OC(=O)C(=C)[C@@]12O`, the results for the half-inhibitory concentration (IC50) in the data set on MDA-MB-468 [1], with MDA-MB-231 and in the data set with BT-549 were 44.1 µM, 43.6 µM and 27.4 µM, respectively. The inhibition result in data set [2] was “inactive”.
Consider `O=C1O[C@@H]2CC[C@H](CBr)[C@]2(O)[C@]12CO2`, for which the IC50 in the data set with MDA-MB-468 [1], with MDA-MB-231 and with BT-549 was > 50 µM each time. Moreover, the inhibition entry in [2] was “inactive”.
With `C[C@H]1C=C2C(=O)O[C@@H]3CC[C@H]([C@@H]1O)[C@]23O`, the concentration for half-maximal inhibition (IC50) in the data set with MDA-MB-468 [1], in the data set on MDA-MB-231 and in the data set with BT-549 was > 50 µM throughout. In addition, the inhibition entry in data set [2] was “inactive”.
As to `C=C1C(=O)O[C@@H]2CC[C@H](CCl)[C@]12O`, the IC50 in the data set with MDA-MB-468 [1], in the data set with MDA-MB-231 and in the data set on BT-549 was > 50 µM throughout.
As to `C=C1C(=O)O[C@@H]2CC[C@H](CO)[C@H]12`, the 50% inhibitory concentration (IC50) in the data set with MDA-MB-468 [1], with MDA-MB-231 and in the data set on BT-549 was > 50 µM throughout. Besides, in data set [2], the inhibition entry is “inactive”.
Regarding `C=C1C(=O)O[C@@H]2CC[C@H](CBr)[C@H]12`, the IC50 with MDA-MB-468 [1] amounted to 42.6 µM; in the data set with MDA-MB-231, 33.3 µM; with BT-549 it was 24.7 µM.
In the case of `C=C1C(=O)O[C@@H]2CC[C@H](CI)[C@]12O`, the results for the concentration for half-maximal inhibition (IC50) in the data set with MDA-MB-468 [1], in the data set on MDA-MB-231 and in the data set with BT-549 were 23.6 µM, 26 µM and 17.3 µM, respectively.
Consider `C=C1C(=O)O[C@@H]2CC[C@H](CBr)[C@]12O`, for which the inhibition result in data set [3] was “Dose-dependent effect”. Besides, the IC50 came to 11.8 µM in the data set with MDA-MB-468 [1], 12.1 µM with MDA-MB-231 and 9.63 µM in the data set on BT-549. Besides, the inhibition entry in [2] is “Active”. Besides, the inhibition result in [4] and in data set [5] was “inactive” each time. Further, the Activity entry with MDA-MB-468 [6] and in the data set with MDA-MB-468 [7] was “Non-Toxic” throughout. Further, the viability at 24 h, 5 µM in data set [8] is 100%. The viability at 24 h, 10 µM in [9] was determined as 98%.
With `C=C1C(=O)O[C@@H]2CC[C@H](CBr)[C@]12OC(C)=O`, the IC50 with MDA-MB-468 [1], in the data set on MDA-MB-231 and in the data set with BT-549 was > 50 µM each time.
As to `C=C1C(=O)O[C@@H]2CC[C@H](COC)[C@]12O`, the IC50 in the data set on MDA-MB-468 [1] is > 50 µM; in the data set on MDA-MB-231, > 50 µM; in the data set with BT-549, 37.9 µM. In addition, in data set [2], the inhibition entry is “inactive”.
`CN[C@@H]1C[C@H]2O[C@@](C)([C@@H]1OC)n1c3ccccc3c3c4c(c5c6ccccc6n2c5c31)C(=O)NC4` [STAUROSPORINE] yielded a half-inhibitory concentration (IC50) in the data set with MDA-MB-468 [1] of 0.15 µM.
On to `C=C1C(=O)O[C@@H]2CC[C@H](CBr)[C@]12OC`, for which the inhibition result in [3] is “Dose-dependent effect”. Also, the IC50 is 7.91 µM with MDA-MB-468 [1], 8.63 µM with MDA-MB-231 and 6.61 µM in the data set on BT-549. Besides, the inhibition entry in data set [2] is “Active”. The inhibition entry in [4] and in data set [5] was “inactive” in each case. Also, the Activity entry with MDA-MB-468 [6] and in the data set with MDA-MB-468 [7] was “Non-Toxic” throughout. The viability at 24 h, 5 µM in data set [8] was found to be 98%. Also, the viability at 24 h, 10 µM in data set [9] amounted to 93%.
On to `C=C[C@H](C)[C@@H](O)[C@H]1CC[C@H]2CC(=O)C(=C)[C@]21O`, for which the IC50 in the data set with MDA-MB-468 [1] was > 50 µM; with MDA-MB-231 it was > 50 µM; in the data set with BT-549, 39.3 µM. In addition, the inhibition result in data set [2] is “inactive”.
As for `C=C1C(=O)O[C@@H]2CC[C@H](CF)[C@]12O`, the half-inhibitory concentration (IC50) was determined as 22.6 µM in the data set with MDA-MB-468 [1], 23.4 µM in the data set with MDA-MB-231 and 7.91 µM with BT-549.
With `C=C1C(=O)O[C@@H]2CC[C@H](COC)[C@]12OC`, the IC50 with MDA-MB-468 [1], in the data set on MDA-MB-231 and in the data set with BT-549 was > 50 µM throughout. Moreover, the inhibition result in data set [2] was “inactive”.
For `C=CC[C@@H](O)[C@H]1CC[C@H]2OC(=O)C(=C)[C@@]12O`, the half-maximal inhibitory concentration (IC50) with MDA-MB-468 [1] was > 50 µM; in the data set with MDA-MB-231, > 50 µM; with BT-549 it was 38.6 µM. The inhibition entry in data set [2] was “inactive”.
